Results: patent publication US8569339B2, “Soluble guanylate cyclase activators” (Boehringer Ingelheim International GmbH, priority 2011, dated 2013)
Values after ≈ are worked out from the molar mass of the structure shown.

Assays:
[1] = Assessment of solubility (HT solubility, pION, UV); assay type: physicochemical; settings: incubated 16-19 hours, 1.0% DMSO, 100 uM; for solubility kinetic: pH 4.5 buffer (pION system solution), pH 4.5, aqueous buffer, kinetic from dmso stock, pH 4.5 buffer, read-out: Sol pH 4.5; for Sol pH 7.4: pH 7.4 buffer
Procedure: Solubility is measured by the following method.
DMSO stock samples at 10 mM conc are prepared. […] The samples are pierced and 100 ul of thawed samples are transferred into the PCR plate for analysis. Each sample is run in duplicate at each pH (pH 4.5 and 7.4). Up to 95 samples can be run in replicate at 2 pH's+1 DMSO (blank).
2. Preparation of pH 4.5 and 7.4 buffers:
pH 4.5 buffer: To 12.5 of system solution (pION) qs to 500 mL of distilled water (pH 2.85-2.90); adjust the pH to pH 4.5 with 0.5 N NaOH.
pH 7.4 buffer: To 12.5 of system solution (pION) qs to 500 mL of distilled water (pH 2.85-2.90); adjust the pH to pH 7.4 with 0.5N NaOH.
Preparation of UV blank plate:
75 ul of buffer (pH 7.4 or pH 4.5) is added to UV plate followed by addition of […] of N-propanol. The solution is mixed and the blank spectrum is read using spectrophotometer.
Preparation of Reference UV plate:
10 ul of each stock sample (including DMSO control) is added to 190 ul of N-propanol to prepare the reference stock plate. Reference stock samples are mixed and 5 ul of each stock sample is added to UV blank plate after it is read spectrophotometrically. The reference stock sample is mixed with blank solution in UV plate and the reference spectrum is read using UV spectrophotometer.
Preparation of sample for incubation:
Solubility at pH 7.4: 6 ul of each stock sample (including DMSO control) is added to the storage plate containing 600 ul of pH 7.4 buffer, mixed and incubated for 16-19 hours. The plate is sealed well during the incubation process. The DMSO content in the sample is 1.0%. The concn in deep well plates is 100 uM
6 ul of each stock sample (including DMSO control) is added to the deep well plate containing 600 ul of pH 4.5 buffer, mixed and incubated for 16-19 hours. The plate is sealed well during the incubation process. The DMSO content in the sample is 1.0%. The concn in deep well plates is 100 uM
Preparation of sample UV plate:
At the end of the incubation period, 100 uL of sample from the storage plate is vacuum filtered using a filter plate. This step wets the filters and the filtrate is discarded. Another 200 ul of the sample from the deep well plate is vacuum filtered using the same filter block but a clean filter plate. 75 ul of the filtrate from the filter plate is transferred to a UV sample plate. 75 ul of N-propanol is added to this UV plate. The solution is mixed and the spectrum is read using the UV spectrophotometer.
The spectra collected for blank, reference and sample from 250-498 nm is analyzed using pION software. If the sample precipitates out, the solubility is reported as XX μg/ml. If there is no precipitation and the sample is soluble, solubility is reported as […] (YY being the initial concentration of the compound in the sample).

[2] = target: T1, Recombinant human soluble guanylate cyclase (sGC) (Homo sapiens, UniProt Q02153); assay: Molecular assay: activation of heme-free sGC, cGMP detection (CisBio kit); assay type: biochemical; settings: 300 pM heme-free sGC, 37° C., 60 minutes, cGMP formation
T1 construct: histidine tag (C); made in house; host or cells: Sf9 insect cells (baculovirus coinfection)
Procedure: The compounds of the invention may be evaluated in the following molecular assay:
Recombinant human soluble guanylate cyclase (sGC) is purified from Sf9 insect cells coinfected with baculoviruses expressing the alpha 1 or beta 1 subunit of sGC, both with a C-terminal histidine tag. Heme-free sGC is prepared by treating cell lysate with a final concentration of 0.5% Tween 20 prior to purification on a nickel affinity column.
sGC catalyzes the conversion of guanosine-5′-triphosphate (GTP) to cyclic guanosine monophosphate (cGMP). The activity of sGC is measured in vitro using the commercially available CisBio cGMP detection kit (catalog #62GM2PEB) in a 384 well format. In brief, 300 pM heme-free sGC is incubated in reaction buffer (50 mM MOPS pH 6.8, 0.2 N KOH, 50 mM NaCl, 2 mM MgCl2, 0.1% BSA, 1.25 mM IBMX, 0.25 mM TCEP, 50 nM GTP) in the presence or absence of dilutions of test compounds diluted in DMSO (final concentration of 1%) in a volume of 10 microL at 37° C. for 60 minutes. Undiluted reaction products or an 80-fold dilution of reaction products (10 microL of either) prepared in reaction buffer containing 0.2 mM TCEP and 10 mM EDTA is mixed with 5 microL of d2-cGMP plus 5 microL of Eu^3+cryptate-labeled anti-cGMP, each diluted in buffer containing 0.1 M KPO4 pH 7.5, 0.4 M KF, 20 mM EDTA, 0.2% BSA. After a one hour incubation at room temperature in the dark, the mixtures are quantified on an EnVision plate reader (PerkinElmer) according to manufacturer instructions (laser excitation 337 nm, emission 620 and 665 nm). The ratio at each compound concentration is converted to nM cGMP using the linear portion of a calibration curve. Log compound concentration is plotted against combined undiluted and diluted nM cGMP values to determine the EC50 for each curve.
Representative compounds of the present invention were tested for activity in the above assay. Preferred compounds have an IC50<5,000 nM and more preferred compounds have an IC50<100 nM in this assay.

T1 sequence (Q02108 whole entry partner): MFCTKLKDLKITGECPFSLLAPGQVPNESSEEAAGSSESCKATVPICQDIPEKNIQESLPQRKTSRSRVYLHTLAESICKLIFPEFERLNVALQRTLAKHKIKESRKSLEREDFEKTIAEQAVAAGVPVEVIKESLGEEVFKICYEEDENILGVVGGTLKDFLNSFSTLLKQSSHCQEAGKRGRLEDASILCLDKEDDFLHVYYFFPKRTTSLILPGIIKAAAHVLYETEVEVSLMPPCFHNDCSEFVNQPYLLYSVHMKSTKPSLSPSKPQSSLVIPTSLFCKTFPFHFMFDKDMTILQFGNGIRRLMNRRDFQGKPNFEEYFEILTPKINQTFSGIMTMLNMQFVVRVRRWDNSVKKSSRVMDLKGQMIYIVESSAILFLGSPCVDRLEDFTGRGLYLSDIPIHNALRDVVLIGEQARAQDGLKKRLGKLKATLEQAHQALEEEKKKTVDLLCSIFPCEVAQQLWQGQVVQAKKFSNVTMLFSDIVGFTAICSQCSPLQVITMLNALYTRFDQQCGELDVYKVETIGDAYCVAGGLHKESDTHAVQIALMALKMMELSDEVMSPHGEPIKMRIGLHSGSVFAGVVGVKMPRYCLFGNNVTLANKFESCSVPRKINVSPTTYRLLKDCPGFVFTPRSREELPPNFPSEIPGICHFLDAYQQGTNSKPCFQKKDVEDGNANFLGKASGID
T1 sequence (Q02153 whole entry): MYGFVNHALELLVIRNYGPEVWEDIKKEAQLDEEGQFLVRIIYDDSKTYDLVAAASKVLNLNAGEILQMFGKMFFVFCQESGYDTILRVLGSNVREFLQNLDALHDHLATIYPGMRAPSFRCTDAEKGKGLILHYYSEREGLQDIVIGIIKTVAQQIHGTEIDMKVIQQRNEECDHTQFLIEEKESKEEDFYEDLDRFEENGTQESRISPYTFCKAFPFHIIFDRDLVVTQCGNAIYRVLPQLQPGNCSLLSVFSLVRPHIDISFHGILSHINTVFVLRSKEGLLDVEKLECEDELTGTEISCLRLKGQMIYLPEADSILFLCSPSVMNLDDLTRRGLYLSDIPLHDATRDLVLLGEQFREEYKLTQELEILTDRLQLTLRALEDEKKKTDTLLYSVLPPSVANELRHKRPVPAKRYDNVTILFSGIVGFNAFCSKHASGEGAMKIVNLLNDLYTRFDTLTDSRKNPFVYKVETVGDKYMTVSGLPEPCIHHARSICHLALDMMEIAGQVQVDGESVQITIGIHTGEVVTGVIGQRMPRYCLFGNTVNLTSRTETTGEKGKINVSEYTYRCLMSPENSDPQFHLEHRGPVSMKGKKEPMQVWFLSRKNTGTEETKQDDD

solubility kinetic [1] [µg/mL] | Sol pH 7.4 [1] [μg/mL] | EC50 [2] [nM] | Structure (SMILES)
> 62 | >62 | 148 | Cc1ccc(OCc2ccc3c(c2)CCN(S(=O)(=O)CC(=O)O)C3)c(-c2cccc(-n3ncc(C(=O)O)c3C(F)(F)F)n2)c1 [Compound 1]
6.5 (≈ 12.4 µM) | 6.1 | 46 | Cc1ccc(OCc2ccc3c(c2)CCN(C)C3)c(-c2cccc(-n3ncc(C(=O)O)c3C(F)(F)F)n2)c1 [Compound 2, 1-{6-[5-methyl-2-(2-methyl-1,2,3,4-tetrahydroisoquinolin-6-ylmethoxy)phenyl]pyridin-2-yl}-5-trifluoromethyl-1H-pyrazole-4-carboxylic acid]
0.8 (≈ 1.21 µM) | >65 | 27 | Cc1ccc(OCc2ccc3c(c2)CCN(S(=O)(=O)CCCC(=O)O)C3)c(-c2cccc(-n3ncc(C(=O)O)c3C(F)(F)F)n2)c1 [Compound 3, 1-(6-{2-[2-(3-carboxypropane-1-sulfonyl)-1,2,3,4-tetrahydroisoquinolin-6-ylmethoxy]-5-methylphenyl}pyridin-2-yl)-5-trifluoromethyl-1H-pyrazole-4-carboxylic acid]
17.6 (≈ 34.6 µM) | 21.7 | 575 | Cc1ccc(OCc2ccc3c(c2)CCNC3)c(-c2cccc(-n3ncc(C(=O)O)c3C(F)(F)F)n2)c1 [Compound 4, 1-{6-[5-Methyl-2-(1,2,3,4-tetrahydroisoquinolin-6-ylmethoxy)phenyl]pyridin-2-yl}-5-trifluoromethyl-1H-pyrazole-4-carboxylic acid]
0.1 (≈ 0.17 µM) | >58 | 33 | Cc1ccc(OCc2ccc3c(c2)CCN(S(C)(=O)=O)C3)c(-c2cccc(-n3ncc(C(=O)O)c3C(F)(F)F)n2)c1 [Compound 5]
0.5 (≈ 0.908 µM) | >54 | 78 | CC(=O)N1CCc2cc(COc3ccc(C)cc3-c3cccc(-n4ncc(C(=O)O)c4C(F)(F)F)n3)ccc2C1 [Compound 6, 1-{6-[2-(2-acetyl-1,2,3,4-tetrahydroisoquinolin-6-ylmethoxy)-5-methylphenyl]pyridin-2-yl}-5-trifluoromethyl-1H-pyrazole-4-carboxylic acid]
2.1 (≈ 4.11 µM) | >51 | 490 | Cc1ccc(OCc2ccc3snnc3c2)c(-c2cccc(-n3ncc(C(=O)O)c3C(F)(F)F)n2)c1 [Compound 7, 1-{6-[2-(benzo[1,2,3]thiadiazol-5-ylmethyoxy)-5-methylphenyl]pyridin-2-yl}-5-trifluoromethyl-1H-pyrazole-4-carboxylic acid]
6.9 (≈ 12.9 µM) | >53 | 280 | Cc1ccc(OCc2ccc3c(c2)CCN(C)C3=O)c(-c2cccc(-n3ncc(C(=O)O)c3C(F)(F)F)n2)c1 [Compound 8]
0.4 (≈ 0.699 µM) | >54 | 67 | Cc1ccc(OCc2ccc3c(c2)CCN3S(C)(=O)=O)c(-c2cccc(-n3ncc(C(=O)O)c3C(F)(F)F)n2)c1 [Compound 9, 1-{6-[2-(1-methanesulfonyl-2,3-dihydro-1H-indol-5-ylmethyoxy)-5-methylphenyl]pyridin-2-yl}-5-trifluoromethyl-1H-pyrazole-4-carboxylic acid]
0.95 (≈ 1.87 µM) | >50 | 280 | Cc1ccc(OCc2ccc3c(c2)nnn3C)c(-c2cccc(-n3ncc(C(=O)O)c3C(F)(F)F)n2)c1 [Compound 10]
> 54 | >54 | 19 | Cc1ccc(OCc2ccc3c(c2)CCN(C2CC2)C3)c(-c2cccc(-n3ncc(C(=O)O)c3C(F)(F)F)n2)c1 [Compound 12]
8.1 (≈ 15.5 µM) | >52 | 79 | Cc1ccc(OCc2ccc3c(c2)N(C)CCC3)c(-c2cccc(-n3ncc(C(=O)O)c3C(F)(F)F)n2)c1 [Compound 13]
> 79 | 44.4 | 11 | Cc1ccc(OCc2ccc3c(c2C)CCN(CC2CCOC2)C3)c(-c2cccc(-c3csc(C(=O)O)c3C)n2)c1 (centres unmarked) [Compound 14]
> 67 | >67 | 33 | Cc1ccc(OCc2ccc3c(c2)CCN(C2CCC2)C3)c(-c2cccc(-n3ncc(C(=O)O)c3C(F)(F)F)n2)c1 [Compound 16]
44.3 (≈ 76.8 µM) | >68 | 13 | Cc1ccc(OCc2ccc3c(c2)CCN(C2CCCC2)C3)c(-c2cccc(-n3ncc(C(=O)O)c3C(F)(F)F)n2)c1 [Compound 17]
> 59 | >59 | 0.8 | Cc1ccc(OCc2ccc3c(c2)CCN(Cc2ccccn2)C3)c(-c2cccc(-n3ncc(C(=O)O)c3C(F)(F)F)n2)c1 [Compound 18]
> 58 | >58 | 2 | Cc1ccc(OCc2ccc3c(c2)CCN(C2CCCCC2)C3)c(-c2cccc(-n3ncc(C(=O)O)c3C(F)(F)F)n2)c1 [Compound 19]
7.8 (≈ 12.7 µM) | 10.7 | 4 | Cc1ccc(OCc2ccc3c(c2)CCN(CCc2ccccc2)C3)c(-c2cccc(-n3ncc(C(=O)O)c3C(F)(F)F)n2)c1 [Compound 20]
> 55 | >55 | 25 | Cc1ccc(OCc2ccc3c(c2)CCN(C(C)C)C3)c(-c2cccc(-n3ncc(C(=O)O)c3C(F)(F)F)n2)c1 [Compound 21]
> 59 | >59 | 1 | Cc1ccc(OCc2ccc3c(c2)CCN(C2CCCOC2)C3)c(-c2cccc(-n3ncc(C(=O)O)c3C(F)(F)F)n2)c1 (centres unmarked) [Compound 22]
> 59 | >59 | 2 | Cc1ccc(OCc2ccc3c(c2)CCN(CC2CCOC2)C3)c(-c2cccc(-n3ncc(C(=O)O)c3C(F)(F)F)n2)c1 (centres unmarked) [Compound 23]
40 (≈ 66.6 µM) | >59 | 9 | Cc1ccc(OCc2ccc3c(c2)CCN(Cc2cnccn2)C3)c(-c2cccc(-n3ncc(C(=O)O)c3C(F)(F)F)n2)c1 [Compound 24]
 |  | 180 | Cc1cccc(-c2cccc(-c3ncc(C(=O)O)n3C)n2)c1OCc1ccc2c(c1)CCN(CC1CCOCC1)C2 [Compound 68]
 |  | 8 | Cc1csc(CN2CCc3cc(COc4c(C)cccc4-c4cccc(-c5ncc(C(=O)O)n5C)n4)ccc3C2)n1 [Compound 69]
